Here are results for 32 compounds from US8710043B2, “TRPM8 antagonists and their use in treatments” (Amgen Inc., priority 2011, dated 2014).

For this assay, the target named is T1, human TRPM8 (Homo sapiens, UniProt Q7Z2W7).
T1 construct: expressed in transfected cells; host or cells: Chinese hamster ovary (CHO) cells, T-REx tetracycline-inducible system, co-transfected with aequorin
As to the kind of experiment: Luminescence readout assay for measuring intracellular calcium, icilin activation. The class given is cell-based. The conditions noted are these: CHO cells expressing human TRPM8, aequorin luminescence, 1 μM icilin activation; read-out: hTRPM8 IC50. In outline:
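The read-out was luminescence reporting intracellular calcium, recorded by a CCD-based luminometer. Compounds were preincubated for 2.5 min before agonist challenge with 1 μM icilin. Human TRPM8 was expressed in a stable T-REx CHO line, induced with 0.5 μg/mL tetracycline the day before.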
(Calcium flux is commonly read through the fluorescence of an indicator in the cells.)

T1 sequence (Q7Z2W7 whole entry): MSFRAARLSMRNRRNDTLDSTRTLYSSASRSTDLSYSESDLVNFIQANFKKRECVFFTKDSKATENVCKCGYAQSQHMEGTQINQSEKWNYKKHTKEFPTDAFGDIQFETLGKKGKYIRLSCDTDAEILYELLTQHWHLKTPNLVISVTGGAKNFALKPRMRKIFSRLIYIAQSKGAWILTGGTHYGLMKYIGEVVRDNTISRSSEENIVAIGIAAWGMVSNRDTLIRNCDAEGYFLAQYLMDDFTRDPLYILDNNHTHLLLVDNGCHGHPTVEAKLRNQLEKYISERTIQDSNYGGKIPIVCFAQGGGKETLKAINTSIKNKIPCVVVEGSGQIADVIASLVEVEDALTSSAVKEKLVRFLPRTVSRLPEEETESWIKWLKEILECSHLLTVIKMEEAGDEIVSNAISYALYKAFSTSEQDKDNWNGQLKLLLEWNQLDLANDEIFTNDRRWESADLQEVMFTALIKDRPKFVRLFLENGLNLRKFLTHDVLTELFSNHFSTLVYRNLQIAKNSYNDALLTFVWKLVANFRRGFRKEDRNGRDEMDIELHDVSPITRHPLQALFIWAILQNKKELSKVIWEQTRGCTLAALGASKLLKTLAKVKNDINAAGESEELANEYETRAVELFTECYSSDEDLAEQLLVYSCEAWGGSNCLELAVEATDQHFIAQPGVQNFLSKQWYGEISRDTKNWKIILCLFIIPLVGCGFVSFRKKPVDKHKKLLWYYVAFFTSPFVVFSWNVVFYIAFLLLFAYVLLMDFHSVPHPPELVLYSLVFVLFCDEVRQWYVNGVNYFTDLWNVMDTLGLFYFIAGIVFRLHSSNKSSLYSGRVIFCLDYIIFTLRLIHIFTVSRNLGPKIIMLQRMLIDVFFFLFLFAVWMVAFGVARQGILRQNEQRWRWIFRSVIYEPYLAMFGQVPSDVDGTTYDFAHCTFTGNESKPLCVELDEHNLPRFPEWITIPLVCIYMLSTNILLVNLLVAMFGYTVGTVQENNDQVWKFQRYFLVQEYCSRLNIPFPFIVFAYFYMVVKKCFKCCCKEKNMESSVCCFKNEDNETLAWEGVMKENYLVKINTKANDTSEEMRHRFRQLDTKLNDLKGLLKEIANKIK

Broadly, the IC50 is the concentration that inhibits the measured activity by half. Take `Cc1ccc([C@H](NC(=O)c2ccc(=O)[nH]c2)c2ncccc2F)cc1C` [Example 380, (S)-N-((3,4-dimethylphenyl)(3-fluoropyridin-2-yl)methyl)-6-oxo-1,6-dihydropyridine-3-carboxamide]: the IC50 worked out at 245 nM.
For `O=C(N[C@@H](c1ccc(OC(F)(F)F)c(F)c1)c1ncccc1F)c1c[nH]c(=O)cn1` [Example 353, (S)-N-((3-fluoro-4-(trifluoromethoxy)phenyl)(3-fluoropyridin-2-yl)methyl)-5-oxo-4,5-dihydropyrazine-2-carboxamide] the value was 27.7 nM; for `O=C(Cc1cccnc1)N[C@@H](c1ccc(OC(F)(F)F)c(F)c1)c1ncccc1F` [Example 289, (S)-N-((3-fluoro-4-(trifluoromethoxy)phenyl)(3-fluoropyridin-2-yl)methyl)-2-(pyridin-3-yl)acetamide], 1610 nM; for `O=C(N[C@@H](c1ccc(C(F)(F)F)cc1)c1ncccc1C(F)(F)F)c1ccc(C(=O)O)nc1` [Example 285, (S)-5-(((4-(Trifluoromethyl)phenyl)(3-(trifluoromethyl)-pyridin-2-yl)methyl)carbamoyl)picolinic Acid 2,2,2-trifluoroacetate], 2160 nM.
For `O=C(NC(c1ccc(OC(F)(F)F)c(F)c1)c1cccc(F)c1F)c1ccc(=O)[nH]c1` (centres unmarked) [Example 412, N-((2,3-difluorophenyl)(3-fluoro-4-(trifluoromethoxy)phenyl)methyl)-6-oxo-1,6-dihydropyridine-3-carboxamide], the IC50 stood at 48 nM.
In the case of `O=C1COc2cc(C(=O)N[C@@H](c3ccc(OC(F)(F)F)cc3)c3ncccc3F)ccc2N1` [Example 81], the IC50 came out at 24.8 nM.
The same measure for `COc1ccc2cc([C@H](NC(=O)c3ccc4cccnc4c3)c3ncccc3C(F)(F)F)cnc2c1` [Example 8, (S)-N-((7-methoxyquinolin-3-yl)(3-(trifluoromethyl)pyridin-2-yl)methyl)quinoline-7-carboxamide]: 54.3 nM; for `Cn1cc(C(=O)N[C@@H](c2cc(F)cc(F)c2)c2ncccc2F)ccc1=O` [Example 330, (S)-N-((3,5-difluorophenyl)(3-fluoropyridin-2-yl)methyl)-1-methyl-6-oxo-1,6-dihydropyridine-3-carboxamide]: 2680 nM; for `CC1(C#Cc2cccnc2[C@@H](NC(=O)c2ccc3ncccc3c2)c2ccc(C(F)(F)F)cc2)COC1` [Example 101, (S)-N-((3-((3-methyloxetan-3-yl)ethynyl)pyridin-2-yl)(4-(trifluoromethyl)phenyl)methyl)quinoline-6-carboxamide 2,2,2-trifluoroacetate]: 395 nM.
As to `O=C(N[C@@H](c1ccc(C(F)(F)F)cc1)c1ncccc1C(F)(F)F)c1c[nH]c2ncccc12` [Example 43, (S)-N-((4-(trifluoromethyl)phenyl)(3-(trifluoromethyl)pyridin-2-yl)methyl)-1H-pyrrolo[2,3-b]pyridine-3-carboxamide], the IC50 turned out to be 24.5 nM.
The same measure for `CC(C)(O)Cn1cc(C(=O)N[C@@H](c2ccc(OC(F)(F)F)c(F)c2)c2ncccc2F)ccc1=O` [Example 302, (S)-N-((3-fluoro-4-(trifluoromethoxy)phenyl)(3-fluoropyridin-2-yl)methyl)-1-(2-hydroxy-2-methylpropyl)-6-oxo-1,6-dihydropyridine-3-carboxamide]: 70.9 nM.
For `O=C1CCc2cc(C(=O)N[C@@H](c3ccc(OC(F)(F)F)c(F)c3)c3ncccc3F)ccc2N1` [Example 351, (S)-N-((3-fluoro-4-(trifluoromethoxy)phenyl)(3-fluoropyridin-2-yl)methyl)-2-oxo-1,2,3,4-tetrahydroquinoline-6-carboxamide] the value was 15.9 nM; for `Cn1cc(C(=O)N[C@@H](c2ccc(C(F)(F)F)cc2)c2ncccc2Cl)ccc1=O` [Example 249, (S)-N-((3-chloropyridin-2-yl)(4-(trifluoromethyl)phenyl)methyl)-1-methyl-6-oxo-1,6-dihydropyridine-3-carboxamide 2,2,2-trifluoroacetate], 13.2 nM.
As to `O=C(NC(c1ccc(C(F)(F)F)cc1)c1ncccc1F)c1ccc2nccnc2c1` (centres unmarked) [Example 202, N-((3-fluoropyridin-2-yl)(4-(trifluoromethyl)phenyl)methyl)quinoxaline-6-carboxamide], the IC50 was 35.2 nM.
The same measure for `O=C(N[C@@H](C#Cc1ccccc1)c1ncccc1C(F)(F)F)c1ccc2cccnc2c1` [Example 261, (S)-N-(3-phenyl-1-(3-(trifluoromethyl)pyridin-2-yl)prop-2-yn-1-yl)quinoline-7-carboxamide]: 375 nM; for `COc1ccccc1C(=O)N[C@@H](c1ccc(C(F)(F)F)cc1)c1ncccc1F` [Example 169, (S)-N-((3-fluoropyridin-2-yl)(4-(trifluoromethyl)phenyl)methyl)-2-methoxybenzamide]: 10.4 nM.
For `Cc1cccnc1[C@@H](NC(=O)c1ccc(=O)[nH]c1)c1ccc(C(F)(F)F)cc1` [Example 82, (S)-N-((3-methylpyridin-2-yl)(4-(trifluoromethyl)phenyl)methyl)-6-oxo-1,6-dihydropyridine-3-carboxamide 2,2,2-trifluoroacetate] the value was 17.7 nM; for `Nc1nc(C(=O)N[C@@H](c2ccc(C(F)(F)F)cc2)c2ncccc2C(F)(F)F)cs1` [Example 136, (S)-2-amino-N-((4-(trifluoromethyl)phenyl)(3-(trifluoromethyl)pyridin-2-yl)methyl)thiazole-4-carboxamide 2,2,2-trifluoroacetate], 121 nM.
For the compound `COc1cccc(C(NC(=O)c2ccc(=O)[nH]c2)c2ccc(OC(F)(F)F)c(F)c2)n1` (centres unmarked) [Example 420, N-((3-fluoro-4-(trifluoromethoxy)phenyl)(6-methoxypyridin-2-yl)methyl)-6-oxo-1,6-dihydropyridine-3-carboxamide], the IC50 was determined as 118 nM.
With `N#Cc1cccc(C(=O)N[C@@H](c2ccc(C(F)(F)F)cc2)c2ncccc2C(F)(F)F)c1` [Example 168, (S)-3-cyano-N-((4-(trifluoromethyl)phenyl)(3-(trifluoromethyl)pyridin-2-yl)methyl)be], the IC50 was found to be 38.4 nM.
For `Cn1ccc(C(=O)N[C@@H](c2ccc(C(F)(F)F)cc2)c2ncccc2C(F)(F)F)cc1=O` [Example 49, (S)-1-methyl-2-oxo-N-((4-(trifluoromethyl)phenyl)(3-(trifluoromethyl)pyridin-2-yl)methyl)-1,2-dihydropyridine-4-carboxamide], the IC50 turned out to be 127 nM.
On to `CC#Cc1cccnc1[C@@H](NC(=O)c1ccc(=O)[nH]c1)c1ccc(C(F)(F)F)cc1` [Example 92, (S)-6-oxo-N-((3-(prop-1-yn-1-yl)pyridin-2-yl)(4-(trifluoromethyl)phenyl)methyl)-1,6-dihydropyridine-3-carboxamide], for which the IC50 came out at 10.3 nM.
Turning to `O=C(N[C@@H](c1ccc(C(F)(F)F)cc1)c1ncccc1C(F)(F)F)c1cc[nH]c(=O)c1` [Example 44, (S)-2-hydroxy-N-((4-(trifluoromethyl)phenyl)(3-(trifluoromethyl)pyridin-2-yl)methyl)isonicotinamide], the 50% inhibitory concentration (IC50) was determined as 229 nM.
Turning to `O=C(N[C@@H](c1ccc(C(F)(F)F)cc1)c1ncccc1C(F)(F)F)c1ccn2ccnc2c1` [Example 87, (S)-N-((4-(trifluoromethyl)phenyl)(3-(trifluoromethyl)pyridin-2-yl)methyl)imidazo[1,2-a]pyridine-7-carboxamide], the IC50 amounted to 8.9 nM.
With `O=C(N[C@@H](c1ccc(C(F)(F)F)cc1)c1ncccc1C(F)(F)F)c1ccc2c(c1)C(=O)NC2` [Example 265, (S)-3-oxo-N-((4-(trifluoromethyl)phenyl)(3-(trifluoromethyl)-pyridin-2-yl)methyl)isoindoline-5-carboxamide], the IC50 was determined as 62.2 nM.
For `Cc1cc(C(=O)N[C@@H](c2ccc(C(F)(F)F)cc2)c2ncccc2F)ccn1` [Example 53, (S)-N-((3-fluoropyridin-2-yl)(4-(trifluoromethyl)phenyl)methyl)-2-methylisonicotinamide] the value was 45.5 nM; for `O=C(N[C@@H](c1ccc(C(F)(F)F)cc1)c1ncccc1C(F)(F)F)c1ccc2c(c1)NCCC2` [Example 274, (S)—N-((4-(Trifluoromethyl)phenyl)(3-(trifluoromethyl)pyridin-2-yl)methyl)-1,2,3,4-tetrahydroquinoline-7-carboxamide], 198 nM.
As to `O=C(N[C@@H](c1ccc(OC(F)(F)F)c(F)c1)c1ncccc1F)c1ccc(=O)n(C(F)F)c1` [Example 399, (S)-1-(difluoromethyl)-N-((3-fluoro-4-(trifluoromethoxy)phenyl)(3-fluoropyridin-2-yl)methyl)-6-oxo-1,6-dihydropyridine-3-carboxamide], the IC50 was determined as 16.5 nM.
The same measure for `Cc1cccnc1[C@@H](NC(=O)c1ccc(=O)[nH]c1)c1ccc(OC(F)(F)F)cc1` [Example 359, (S)-N-((3-methylpyridin-2-yl)(4-(trifluoromethoxy)phenyl)methyl)-6-oxo-1,6-dihydropyridine-3-carboxamide]: 13.6 nM.
For `CC#Cc1cccnc1[C@@H](NC(=O)c1ccc(OC)nc1)c1ccc(C(F)(F)F)cc1` [Example 96, (S)-6-methoxy-N-((3-(prop-1-yn-1-yl)pyridin-2-yl)(4-(trifluoromethyl)phenyl)methyl)nicotinamide], the IC50 came to 37.6 nM.
For `Cc1c[nH]c(C(=O)N[C@@H](c2ccc(OC(F)(F)F)c(F)c2)c2ncccc2F)n1` [Example 388, (S)-N-((3-fluoro-4-(trifluoromethoxy)phenyl)(3-fluoropyridin-2-yl)methyl)-4-methyl-1H-imidazole-2-carboxamide 2,2,2-trifluoroacetate] the value was 2980 nM; for `Cc1cccnc1[C@@H](NC(=O)c1ccc2oc(=O)[nH]c2c1)c1ccc(C(F)(F)F)cc1` [Example 84, (S)-N-((3-methylpyridin-2-methyl)phenyl)yl)(4-(trifluoromethyl)-2-oxo-2,3-dihydrobenzo[d]oxazole-5-carboxamide], 5.3 nM.
